Like-named read-outs stand apart in the source and are kept apart here. Starred links: 1 amine or outer side, 2 acyl side, 3 side chain; linkers in the order of their positions; H or OH if unused. Non-standard residues stand in square brackets, D forms with d. Residues, ends and D or L forms follow the SMILES beside them. Groups on a side chain read outwards from the residue. *: point of attachment. C18 diacid = O=C(O)CCCCCCCCCCCCCCCCC(=O)*; γGlu = O=C(O)[C@H](CCC(=O)[*:2])N[*:1]; AEEA = NCCOCCOCC(=O)O; Aib = CC(C)(N)C(=O)O
Tests used:
human CRF2α receptor = target: T1, human CRF2α receptor (Homo sapiens, UniProt Q13324); assay: cAMP agonism at human CRF2 α receptor in TeloHEAC cells (Example 7); format: cell-based; conditions: cAMP HTRF, TeloHEAC cells stably expressing human CRF2 α
T1 construct: expressed in transfected cells; host or cells: TeloHEAC
T1 sequence (Q13324 1-411): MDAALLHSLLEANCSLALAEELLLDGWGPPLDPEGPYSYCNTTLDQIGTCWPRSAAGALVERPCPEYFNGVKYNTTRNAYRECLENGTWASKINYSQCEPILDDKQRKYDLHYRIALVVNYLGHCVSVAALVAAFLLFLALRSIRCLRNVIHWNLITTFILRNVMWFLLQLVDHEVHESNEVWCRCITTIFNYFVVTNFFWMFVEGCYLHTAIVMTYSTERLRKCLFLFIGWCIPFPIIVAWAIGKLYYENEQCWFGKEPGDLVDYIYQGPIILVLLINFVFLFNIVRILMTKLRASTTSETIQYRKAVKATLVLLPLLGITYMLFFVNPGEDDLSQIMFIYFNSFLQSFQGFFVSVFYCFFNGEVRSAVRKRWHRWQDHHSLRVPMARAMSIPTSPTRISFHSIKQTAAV
Procedure, shortened: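 Cryopreserved cells are thawed, washed and resuspended in IBMX-containing (2 mM) HEPES-buffered HBSS with or without 0.1% HSA. Compound incubation runs 30 min at room temperature with 2000 cells per well, then cAMP is measured by time-resolved FRET. Potency is expressed as EC50, efficacy relative to urocortin 2 at 1000 nM.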

CRF1R receptor = target: T2, CRF1R receptor (Homo sapiens, UniProt P34998); assay: cAMP activity at anti-target CRF1R, CHO-K1 cell line clone 2 (Example 19.10); format: cell-based; conditions: CRF1R CHO-K1 clone 2; for EC50: 0% HSA, read-out: EC50 [nM] 0% HSA; for Emax: 100% = Sauvagine at 100 nM
T2 construct: host or cells: CHO-K1 clone 2
T2 sequence (P34998 24-415): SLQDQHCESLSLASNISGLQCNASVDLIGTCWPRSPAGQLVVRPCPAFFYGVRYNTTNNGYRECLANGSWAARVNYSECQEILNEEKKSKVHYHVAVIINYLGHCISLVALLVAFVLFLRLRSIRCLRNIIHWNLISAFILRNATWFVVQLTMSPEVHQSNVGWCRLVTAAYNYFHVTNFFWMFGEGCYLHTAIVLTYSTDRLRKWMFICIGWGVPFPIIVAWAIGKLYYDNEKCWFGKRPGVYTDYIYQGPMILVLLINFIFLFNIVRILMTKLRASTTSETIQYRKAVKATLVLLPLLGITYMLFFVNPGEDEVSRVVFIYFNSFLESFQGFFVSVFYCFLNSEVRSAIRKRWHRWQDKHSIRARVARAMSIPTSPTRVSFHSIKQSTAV
Procedure, shortened: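 A CRF1R-overexpressing CHO-K1 line (clone 2) was grown in F12/10% FBS/G418 and frozen in aliquots before use. The cAMP assay followed the preceding procedure, with 100% activation defined by Sauvagine at 100 nM.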

[1] = 0% HSA, read-out: EC50 [nM], 0% HSA
[2] = 0.1% HSA, read-out: EC50 [nM], 0.1% HSA

With `CC[C@H](C)[C@H](N)C(=O)N[C@H](C(=O)N[C@@H](CC(C)C)C(=O)N[C@@H](CO)C(=O)N[C@@H](CC(C)C)C(=O)N[C@@H](CC(=O)O)C(=O)N[C@H](C(=O)N1CCC[C@H]1C(=O)N[C@H](C(=O)N[C@@H](CCCCN)C(=O)N[C@@H](CC(C)C)C(=O)N[C@@H](CCCCNC(=O)COCCOCCNC(=O)COCCOCCNC(=O)CC[C@H](NC(=O)CCCCCCCCCCCCCCCCC(=O)O)C(=O)O)C(=O)N[C@@H](CCC(N)=O)C(=O)N[C@H](C(=O)N[C@@H](CC(C)C)C(=O)N[C@@H](CC(C)C)C(=O)N[C@@H](CCCCN)C(=O)N[C@@H](CCC(N)=O)C(=O)N[C@@H](CCC(=O)O)C(=O)N[C@@H](CCCNC(=N)N)C(=O)N[C@@H](CCC(N)=O)C(=O)N[C@@H](CCCCN)C(=O)N[C@@H](CCCCN)C(=O)NC(C)(C)C(=O)N[C@@H](CCCNC(=N)N)C(=O)N[C@@H](CCC(N)=O)C(=O)N[C@@H](CCCCN)C(=O)N[C@@H](C)C(=O)N[C@@H](CCC(=O)O)C(=O)N[C@@H](CCCCN)C(=O)N[C@@H](CC(N)=O)C(=O)N[C@@H](CCCCN)C(=O)N[C@@H](CCC(N)=O)C(=O)N[C@H](C(=O)N[C@@H](CC(C)C)C(=O)N[C@@H](C)C(=O)N[C@@H](CCC(N)=O)C(=O)N[C@H](C(N)=O)C(C)C)[C@@H](C)CC)[C@@H](C)CC)[C@@H](C)CC)C(C)C)C(C)C` [compound 119] (H-IVLSLDVPIKLK([AEEA-AEEA-γGlu-C18 diacid])QILLKQERQKK[Aib]RQKAEKNKQILAQV-NH2) the EC50 (human CRF2α receptor; [1]) was 0.13 nM, the EC50 (human CRF2α receptor; [2]) was 4.97 nM and the EC50 (CRF1R receptor) was > 100 nM. It also gave an Emax (CRF1R receptor) of 0.4%.

In the case of `CC[C@H](C)[C@H](N)C(=O)N[C@H](C(=O)N[C@@H](CC(C)C)C(=O)N[C@@H](CO)C(=O)N[C@@H](CC(C)C)C(=O)N[C@@H](CC(=O)O)C(=O)N[C@H](C(=O)N1CCC[C@H]1C(=O)N[C@H](C(=O)N[C@@H](CCCCN)C(=O)N[C@@H](CC(C)C)C(=O)N[C@@H](CCCCNC(=O)COCCOCCNC(=O)COCCOCCNC(=O)CC[C@H](NC(=O)CCCCCCCCCCCCCCCCC(=O)O)C(=O)O)C(=O)N[C@@H](CCC(N)=O)C(=O)N[C@H](C(=O)N[C@@H](CC(C)C)C(=O)N[C@@H](CC(C)C)C(=O)N[C@@H](CCCCN)C(=O)N[C@@H](CCC(N)=O)C(=O)N[C@@H](CCC(=O)O)C(=O)N[C@@H](CCCNC(=N)N)C(=O)N[C@@H](CCC(N)=O)C(=O)N[C@@H](CCCCN)C(=O)N[C@@H](CCCCN)C(=O)N[C@@H](CCC(N)=O)C(=O)N[C@@H](CCCNC(=N)N)C(=O)N[C@@H](CCC(=O)O)C(=O)N[C@@H](CCCCN)C(=O)N[C@@H](C)C(=O)N[C@@H](CCC(=O)O)C(=O)N[C@@H](CCCCN)C(=O)N[C@@H](CC(N)=O)C(=O)N[C@@H](CCCCN)C(=O)N[C@@H](CCC(N)=O)C(=O)N[C@H](C(=O)N[C@@H](CC(C)C)C(=O)N[C@@H](C)C(=O)N[C@@H](CCC(N)=O)C(=O)N[C@H](C(N)=O)C(C)C)[C@@H](C)CC)[C@@H](C)CC)[C@@H](C)CC)C(C)C)C(C)C` [compound 121] (H-IVLSLDVPIKLK([AEEA-AEEA-γGlu-C18 diacid])QILLKQERQKKQREKAEKNKQILAQV-NH2), the EC50 (human CRF2α receptor; [1]) is reported as 0.73 nM, the EC50 (human CRF2α receptor; [2]) is reported as 41.3 nM and the EC50 (CRF1R receptor) is reported as > 100 nM. For the same compound, the Emax (CRF1R receptor) was -1.1%.

For `CC[C@H](C)[C@H](N)C(=O)N[C@H](C(=O)N[C@@H](CC(C)C)C(=O)N[C@@H](CO)C(=O)N[C@@H](CC(C)C)C(=O)N[C@@H](CC(=O)O)C(=O)N[C@H](C(=O)N1CCC[C@H]1C(=O)N[C@H](C(=O)N[C@@H](CCCCN)C(=O)N[C@@H](CC(C)C)C(=O)N[C@@H](CCCCNC(=O)COCCOCCNC(=O)COCCOCCNC(=O)CC[C@H](NC(=O)CCCCCCCCCCCCCCCCC(=O)O)C(=O)O)C(=O)N[C@@H](CCC(N)=O)C(=O)N[C@H](C(=O)N[C@@H](CC(C)C)C(=O)N[C@@H](CC(C)C)C(=O)N[C@@H](CCCCN)C(=O)N[C@@H](CCC(N)=O)C(=O)N[C@@H](CCC(=O)O)C(=O)N[C@@H](CCCNC(=N)N)C(=O)N[C@@H](CCC(N)=O)C(=O)N[C@@H](CCCCN)C(=O)N[C@@H](CCCCN)C(=O)N[C@@H](CCC(N)=O)C(=O)N[C@@H](CCCNC(=N)N)C(=O)N[C@@H](CCC(N)=O)C(=O)N[C@@H](CCC(N)=O)C(=O)N[C@@H](C)C(=O)N[C@@H](CCC(=O)O)C(=O)N[C@@H](CCCCN)C(=O)N[C@@H](CC(N)=O)C(=O)N[C@@H](CCCCN)C(=O)N[C@@H](CCC(N)=O)C(=O)N[C@H](C(=O)N[C@@H](CC(C)C)C(=O)N[C@@H](C)C(=O)N[C@@H](CCC(N)=O)C(=O)N[C@H](C(N)=O)C(C)C)[C@@H](C)CC)[C@@H](C)CC)[C@@H](C)CC)C(C)C)C(C)C` [compound 122] (H-IVLSLDVPIKLK([AEEA-AEEA-γGlu-C18 diacid])QILLKQERQKKQRQQAEKNKQILAQV-NH2; N-terminus assumed), the EC50 (human CRF2α receptor; [1]) was 0.04 nM, the EC50 (human CRF2α receptor; [2]) was 1.71 nM and the EC50 (CRF1R receptor) was > 100 nM. For the same compound, the Emax (CRF1R receptor) was 6.9%.

For `CC[C@H](C)[C@H](N)C(=O)N[C@H](C(=O)N[C@@H](CC(C)C)C(=O)N[C@@H](CO)C(=O)N[C@@H](CC(C)C)C(=O)N[C@@H](CC(=O)O)C(=O)N[C@H](C(=O)N1CCC[C@H]1C(=O)N[C@H](C(=O)N[C@@H](CCCCN)C(=O)N[C@@H](CC(C)C)C(=O)N[C@@H](CCCCNC(=O)COCCOCCNC(=O)COCCOCCNC(=O)CC[C@H](NC(=O)CCCCCCCCCCCCCCCCC(=O)O)C(=O)O)C(=O)N[C@@H](CCC(N)=O)C(=O)N[C@H](C(=O)N[C@@H](CC(C)C)C(=O)N[C@@H](CC(C)C)C(=O)N[C@@H](CCC(=O)O)C(=O)N[C@@H](CCC(N)=O)C(=O)N[C@@H](C)C(=O)N[C@@H](CCCNC(=N)N)C(=O)N[C@@H](CCC(N)=O)C(=O)N[C@@H](CCCCN)C(=O)NC(C)(C)C(=O)N[C@@H](CCC(N)=O)C(=O)N[C@@H](CCCNC(=N)N)C(=O)N[C@@H](C)C(=O)N[C@@H](CCC(N)=O)C(=O)N[C@@H](C)C(=O)N[C@@H](CCC(=O)O)C(=O)N[C@@H](CCCCN)C(=O)N[C@@H](CC(N)=O)C(=O)N[C@@H](CCCCN)C(=O)N[C@@H](CCCNC(=N)N)C(=O)N[C@H](C(=O)N[C@@H](CC(C)C)C(=O)N[C@@H](CCC(=O)O)C(=O)N[C@@H](CCCNC(=N)N)C(=O)N[C@H](C(N)=O)C(C)C)[C@@H](C)CC)[C@@H](C)CC)[C@@H](C)CC)C(C)C)C(C)C` [compound 123] (H-IVLSLDVPIKLK([AEEA-AEEA-γGlu-C18 diacid])QILLEQARQK[Aib]QRAQAEKNKRILERV-NH2; N-terminus assumed), the EC50 (human CRF2α receptor; [1]) was 0.33 nM, the EC50 (human CRF2α receptor; [2]) was 9.74 nM and the EC50 (CRF1R receptor) was > 100 nM. The Emax (CRF1R receptor) was 9%.

In the case of `CC[C@H](C)[C@H](N)C(=O)N[C@H](C(=O)N[C@@H](CC(C)C)C(=O)N[C@@H](CO)C(=O)N[C@@H](CC(C)C)C(=O)N[C@@H](CC(=O)O)C(=O)N[C@H](C(=O)N1CCC[C@H]1C(=O)N[C@H](C(=O)N[C@@H](CCCCN)C(=O)N[C@@H](CC(C)C)C(=O)N[C@@H](CCCCNC(=O)COCCOCCNC(=O)COCCOCCNC(=O)CC[C@H](NC(=O)CCCCCCCCCCCCCCCCC(=O)O)C(=O)O)C(=O)N[C@@H](CCC(N)=O)C(=O)N[C@H](C(=O)N[C@@H](CC(C)C)C(=O)N[C@@H](CC(C)C)C(=O)N[C@@H](CCCCN)C(=O)N[C@@H](CCC(N)=O)C(=O)N[C@@H](C)C(=O)N[C@@H](CCCNC(=N)N)C(=O)N[C@@H](CCC(N)=O)C(=O)N[C@@H](CCCCN)C(=O)NC(C)(C)C(=O)N[C@@H](CCC(N)=O)C(=O)N[C@@H](CCCNC(=N)N)C(=O)N[C@@H](C)C(=O)N[C@@H](CCC(N)=O)C(=O)N[C@@H](C)C(=O)N[C@@H](CCC(=O)O)C(=O)N[C@@H](CCCCN)C(=O)N[C@@H](CC(N)=O)C(=O)N[C@@H](CCCCN)C(=O)N[C@@H](CCCNC(=N)N)C(=O)N[C@H](C(=O)N[C@@H](CC(C)C)C(=O)N[C@@H](CCC(=O)O)C(=O)N[C@@H](CCCNC(=N)N)C(=O)N[C@H](C(N)=O)C(C)C)[C@@H](C)CC)[C@@H](C)CC)[C@@H](C)CC)C(C)C)C(C)C` [compound 124] (H-IVLSLDVPIKLK([AEEA-AEEA-γGlu-C18 diacid])QILLKQARQK[Aib]QRAQAEKNKRILERV-NH2; N-terminus assumed), the EC50 (human CRF2α receptor; [1]) is reported as 0.11 nM, the EC50 (human CRF2α receptor; [2]) is reported as 4.37 nM and the EC50 (CRF1R receptor) is reported as > 100 nM. The Emax (CRF1R receptor) was -2.5%.
